Data set [1] in a line: Cytotoxicity (MTS cell viability) in the HIV-1 assay. Conditions: human, CEM-SS cells (uninfected, cells plus peptide only).
A short description of another data set: in vitro. Conditions: human, HepG2-2.2.15 cells.
A further data set concerns MRSA. Conditions: 5 micrograms per ml.
A short description of data set [2]: Cytotoxicity (CellTiter 96 cell viability) in the HCMV assay. Conditions: human, MRC-5 cells (embryonal lung fibroblasts).
A further data set relates to Streptococcus pneumoniae. Format: cell-based. Conditions: 5 micrograms per ml.
A further data set deals with Pseudomonas aeruginosa. Format: cell-based. As to conditions: 5 micrograms per ml.
The next data set relates to MRC-5 cells. The data set can be described thus: Cytotoxicity (CellTiter 96 cell viability) in the HCMV assay. Conditions: MRC-5 cells, 6 days incubation.
Another data set relates to HIV-1IIIB. The data set can be described thus: HIV-1 antiviral assay (CPE reduction, MTS) in CEM-SS cells. Format: cell-based. As to conditions: peptide 10 micrograms per ml; 6 days post-infection.
For another data set, the system named is CEM-SS cells. Nature of the data set: Cytotoxicity (MTS cell viability) in the HIV-1 assay. Conditions: CEM-SS cells, MTS; peptide 10 micrograms per ml.

Where a SMILES comes first, the peptide text is derived from it. [ ]: non-standard residue; d: D form. pGlu = O=C1CC[C@@H](C(=O)O)N1

What is called viability is the share of living cells, or the viability signal relative to a control. A word on the % inhibition: it is the drop in the measured response relative to a control, in per cent.

In the case of `CSCC[C@H](NC(=O)[C@H](Cc1c[nH]c2ccccc12)NC(=O)CNC(=O)[C@H](Cc1ccc(O)cc1)NC(=O)[C@H](C)NC(=O)[C@H](CCC(=O)O)NC(=O)[C@H](CCC(=O)O)NC(=O)[C@H](CCC(=O)O)NC(=O)[C@H](CCC(=O)O)NC(=O)[C@H](CCC(=O)O)NC(=O)[C@H](CC(C)C)NC(=O)[C@H](Cc1c[nH]c2ccccc12)NC(=O)[C@@H]1CCCN1C(=O)CNC(=O)[C@H](CCC(N)=O)NC(=O)[C@H](CCCCN)NC(=O)[C@H](CCCCN)NC(=O)[C@H](CO)NC(=O)[C@@H]1CCCN1C(=O)[C@H](CC(=O)O)NC(=O)[C@H](C)NC(=O)[C@@H](NC(=O)[C@H](CC(C)C)NC(=O)[C@H](Cc1c[nH]cn1)NC(=O)[C@@H]1CCCN1C(=O)[C@@H]1CCCN1C(=O)CNC(=O)[C@H](CCC(N)=O)NC(=O)[C@@H]1CCCN1C(=O)CNC(=O)[C@H](CC(C)C)NC(=O)[C@@H]1CCC(=O)N1)C(C)C)C(=O)N[C@@H](CC(=O)O)C(=O)N[C@@H](Cc1ccccc1)C(N)=O` [Big Gastrin I] ([pGlu]LGPQGPPHLVADPSKKQGPWLEEEEEAYGWMDF-NH2), the viability at 10 micrograms per ml in data set [1] came out at 100%. In the data set “in vitro”, this compound showed a viability at 144 h, 10 micrograms per ml of 88.7%. Moreover, the “% inhibition” value in the data set with MRSA, in the data set on Streptococcus pneumoniae and with Pseudomonas aeruginosa was 0.0% each time. The viability at 144 h in data set [2] amounted to 100%.
Regarding `Nc1nc(O)c2ncn(COC(CO)CO)c2n1` [Ganciclovir, reference compound], in the data set with MRC-5 cells, the “% Cell viability” value is listed as 100%.
As to `CC(C)(C)NC(=O)[C@@H]1CN(Cc2cccnc2)CCN1C[C@@H](O)C[C@@H](Cc1ccccc1)C(=O)N[C@H]1c2ccccc2C[C@H]1O` [Indinavir, indinavir], the “% CPE reduction in HIV-1 infected CEM-SS cells” value with HIV-1IIIB amounted to 100%.
For `Cc1cn([C@H]2C[C@H](N=[N+]=[N-])[C@@H](CO)O2)c(=O)[nH]c1=O` [AZT, reference compound], in the data set with CEM-SS cells, the “% Cell viability” value is recorded as 97%. Also, in the data set with HIV-1IIIB, the “% CPE reduction in HIV-1 infected CEM-SS cells” value was determined as 99%.
